According to ChEMBL document CHEMBL1145392, “Natural feruloyl monoglyceride macrocycles as protecting factors against free-radical damage of lipidic membranes” (Bioorg Med Chem Lett, 2007):
The source made the active and inactive calls.

Experiments:
Type in all cases: functional
[1] = Superoxide radical scavenging activity assessed as NBT reduction
Liver microsomes = assay: Inhibition of lipid peroxidation activity in Wistar rat liver microsomes by TBRAS assay; conditions: Microsome
[2] = Hydrogen peroxide radical scavenging activity

Measured: Activity

COc1cc(/C=C/C(=O)OCC2COC(=O)CCCCCCCCCCCCCCCCCCCCCCCCCCO2)ccc1O (configuration not stated)
active: [1] | Liver microsomes | [2]

COc1cc(/C=C\C(=O)OCC2COC(=O)CCCCCCCCCCCCCCCCCCCCCCCCCCCCCCCCCO2)ccc1O (configuration not stated)
active: [1] | Liver microsomes | [2]

COc1cc(/C=C/C(=O)OCC2COC(=O)CCCCCCCCCCCCCCCCCCO2)ccc1O (configuration not stated)
active: [1] | Liver microsomes | [2]

COc1cc(/C=C/C(=O)OCC2COC(=O)CCCCCCCCCCCCCCCCCCCCCCCO2)ccc1O (configuration not stated)
active: [1] | Liver microsomes | [2]

COc1cc(/C=C/C(=O)OCC2COC(=O)CCCCCCCCCCCCCCCCCCCCO2)ccc1O (configuration not stated)
active: [1] | Liver microsomes | [2]

COc1cc(/C=C/C(=O)OCC2COC(=O)CCCCCCCCCCCCCCCCCCCCCCCCCCCCO2)ccc1O (configuration not stated)
active: [1] | Liver microsomes | [2]

COc1cc(/C=C\C(=O)OCC2COC(=O)CCCCCCCCCCCCCCCCCCCCCCCCO2)ccc1O (configuration not stated)
active: [1] | Liver microsomes | [2]

COc1cc(/C=C/C(=O)OCC2COC(=O)CCCCCCCCCCCCCCCCCCCCCCCCO2)ccc1O (configuration not stated)
active: [1] | Liver microsomes | [2]

COc1cc(/C=C/C(=O)OCC2COC(=O)CCCCCCCCCCCCCCCCCCCCCCCCCCCCCO2)ccc1O (configuration not stated)
active: [1] | Liver microsomes | [2]
